Tested on: Plasmodium berghei
Assay: Luciferase/luciferin-expressing antifolate-resistant parasites were used to infect a culture of HepG2 cells that were pre-incubated with compounds. Infected hepatocytes emit light due to the luciferase reaction. Assay results are presented as the percent inhibition of light emission compared to control. […]
Type: functional
Conditions: sporozoite; for IC90: read-out: LUCIFERASE INFECTION ASSAY - IC90

Compound | IC90 [µM] | further results
O=c1c(Br)c(Br)cnn1-c1ccccc1 | > 10 | IC50 (HEPG2TOX_HILL_SLOPE 14.1, HEPG2TOX_R_SQUARED 0.656, PBLUC_HILL_SLOPE 2.79, PBLUC_R_SQUARED 0.266, read-out: LUCIFERASE INFECTION ASSAY - IC50): 6.1 µM
O=C(Nc1ccc(Cl)cc1)Nc1csc([N+](=O)[O-])c1 | 10 | IC50 (HEPG2TOX_HILL_SLOPE 14.4, HEPG2TOX_R_SQUARED 0.942, PBLUC_HILL_SLOPE 1.2, PBLUC_R_SQUARED 0.682, read-out: LUCIFERASE INFECTION ASSAY - IC50): 1.62 µM
O=C(Nc1ccc(F)cc1F)c1cc(Cl)ccc1O | 4.37 | IC50 (HEPG2TOX_HILL_SLOPE 14.4, HEPG2TOX_R_SQUARED 0.715, PBLUC_HILL_SLOPE 17.6, PBLUC_R_SQUARED 0.0303, read-out: LUCIFERASE INFECTION ASSAY - IC50): 3.86 µM
COc1ccc(Oc2ccc(/C=C/C(=O)c3ccc(N4CCN(C)CC4)cc3)cc2[N+](=O)[O-])cc1 | 4.34 | IC50 (HEPG2TOX_HILL_SLOPE 14.7, HEPG2TOX_R_SQUARED 0.729, PBLUC_HILL_SLOPE 20.7, PBLUC_R_SQUARED 0.331, read-out: LUCIFERASE INFECTION ASSAY - IC50): 3.9 µM
Cc1nc(-c2ccc(CCNC(=O)c3ccc(S(C)(=O)=O)c([N+](=O)[O-])c3)cc2)cs1 | 5.46 | IC50 (HEPG2TOX_HILL_SLOPE 14.7, HEPG2TOX_R_SQUARED 0.837, PBLUC_HILL_SLOPE 381, PBLUC_R_SQUARED 0.298, read-out: LUCIFERASE INFECTION ASSAY - IC50): 5.43 µM
CCC(C)(C)NS(=O)(=O)c1ccc(-n2ncc(Cl)c(Cl)c2=O)cc1 | 1.45 | IC50 (HEPG2TOX_HILL_SLOPE 13.4, HEPG2TOX_R_SQUARED 0.912, PBLUC_HILL_SLOPE 13.3, PBLUC_R_SQUARED 0.601, read-out: LUCIFERASE INFECTION ASSAY - IC50): 1.23 µM
O=C(Nc1ncc(Cc2ccc(F)c(F)c2)s1)c1ccc2nc[nH]c2c1 | > 10 | IC50 (HEPG2TOX_HILL_SLOPE 13.7, HEPG2TOX_R_SQUARED 0.959, PBLUC_HILL_SLOPE 2.28, PBLUC_R_SQUARED 0.72, read-out: LUCIFERASE INFECTION ASSAY - IC50): 4.35 µM
O=C(/C=C/c1ccc(F)cc1)Nc1cc([N+](=O)[O-])c(F)cc1F | > 10 | IC50 (HEPG2TOX_HILL_SLOPE 14.4, HEPG2TOX_R_SQUARED 0.364, PBLUC_HILL_SLOPE 4.24, PBLUC_R_SQUARED 0.457, read-out: LUCIFERASE INFECTION ASSAY - IC50): 8.62 µM
O=C1Cn2c(c(-c3nc4ccccc4[nH]3)c(=O)c3ccccc32)N1 | 9.39 | IC50 (HEPG2TOX_HILL_SLOPE 13.7, HEPG2TOX_R_SQUARED 0.894, PBLUC_HILL_SLOPE 11.3, PBLUC_R_SQUARED 0.46, read-out: LUCIFERASE INFECTION ASSAY - IC50): 7.72 µM
O=c1c(C(F)(F)F)cccn1Cc1csc(COc2ccc(Cl)cc2)n1 | > 10 | IC50 (HEPG2TOX_HILL_SLOPE 13.6, HEPG2TOX_R_SQUARED 0.877, PBLUC_HILL_SLOPE 2.65, PBLUC_R_SQUARED 0.537, read-out: LUCIFERASE INFECTION ASSAY - IC50): 7.31 µM
CCNC(=O)NC(=O)C(C)OC(=O)c1c(C)c(CC)nc2ccccc12 (configuration not stated) | > 10 | IC50 (HEPG2TOX_HILL_SLOPE 14.2, HEPG2TOX_R_SQUARED 0.666, PBLUC_HILL_SLOPE 0.849, PBLUC_R_SQUARED 0.474, read-out: LUCIFERASE INFECTION ASSAY - IC50): 4.39 µM
O=C(NCCO)c1cccc(-c2ccc3ncc(-c4cccc(O)c4)n3n2)c1 | 9.64 | IC50 (HEPG2TOX_HILL_SLOPE 14.1, HEPG2TOX_R_SQUARED 0.658, PBLUC_HILL_SLOPE 25.2, PBLUC_R_SQUARED 0.24, read-out: LUCIFERASE INFECTION ASSAY - IC50): 8.83 µM
CC(C)(C)NC(=O)c1csc(C(O)c2cccc(C(F)(F)F)c2)n1 (configuration not stated) | > 10 | IC50 (HEPG2TOX_HILL_SLOPE 14.6, HEPG2TOX_R_SQUARED 0.662, PBLUC_HILL_SLOPE 2.89, PBLUC_R_SQUARED 0.602, read-out: LUCIFERASE INFECTION ASSAY - IC50): 4.91 µM
O=[N+]([O-])c1ccc(NC2C=CS(=O)(=O)C2)c(Cl)c1 (configuration not stated) | > 10 | IC50 (HEPG2TOX_HILL_SLOPE 13.7, HEPG2TOX_R_SQUARED 0.786, read-out: LUCIFERASE INFECTION ASSAY - IC50): > 10 µM
O=C(Nc1nc(-c2ccc3c(c2)CCC3)cs1)c1ccc(CSc2nnc[nH]2)cc1 | > 10 | IC50 (HEPG2TOX_HILL_SLOPE 14.2, HEPG2TOX_R_SQUARED 0.936, PBLUC_HILL_SLOPE 3.67, PBLUC_R_SQUARED 0.0328, read-out: LUCIFERASE INFECTION ASSAY - IC50): 6.58 µM
Cc1cccc(C)c1-n1nnnc1Sc1nc(CN2CCOCC2)nc2sc(C)c(C)c12 | > 10 | IC50 (HEPG2TOX_HILL_SLOPE 14.5, 28.4, HEPG2TOX_R_SQUARED 0.890, 0.649, PBLUC_HILL_SLOPE 85.3, 7.09, PBLUC_R_SQUARED 0.147, 0.386, read-out: LUCIFERASE INFECTION ASSAY - IC50): 8.67 µM

Compound | IC90 [µM] | further results
CCN(CCO)c1ccc(Nc2cc(C(=O)Nc3ccccc3)ncn2)cc1 | 7.92 | IC50 (HEPG2TOX_HILL_SLOPE 13.5, HEPG2TOX_R_SQUARED 0.28, PBLUC_HILL_SLOPE 1.45, PBLUC_R_SQUARED 0.807, read-out: LUCIFERASE INFECTION ASSAY - IC50): 1.74 µM
CCCNC(=O)c1c(NC(=O)c2ccc(CC)cc2)nc2ccc(C)cn12 | 3.22 | IC50 (HEPG2TOX_HILL_SLOPE 14.6, HEPG2TOX_R_SQUARED 0.266, PBLUC_HILL_SLOPE 22.2, PBLUC_R_SQUARED 0.534, read-out: LUCIFERASE INFECTION ASSAY - IC50): 2.92 µM
O=C(NNC(=O)c1cnc2ccccn2c1=O)c1cc(Cl)ccc1O | 4.25 | IC50 (HEPG2TOX_HILL_SLOPE 14.4, HEPG2TOX_R_SQUARED 0.595, PBLUC_HILL_SLOPE 11.5, PBLUC_R_SQUARED 0.377, read-out: LUCIFERASE INFECTION ASSAY - IC50): 3.51 µM
CCOC(=O)c1c(NC(=O)Cn2ncc(Cl)c(Cl)c2=O)sc(C(=O)NC)c1C | 6.18 | IC50 (HEPG2TOX_HILL_SLOPE 14.3, HEPG2TOX_R_SQUARED 0.883, PBLUC_HILL_SLOPE 2.04, PBLUC_R_SQUARED 0.801, read-out: LUCIFERASE INFECTION ASSAY - IC50): 2.11 µM
COc1ccc(-c2noc(CN3CCN(C(=O)c4nn(-c5cccc(Cl)c5)nc4C)CC3)n2)cc1 | > 10 | IC50 (HEPG2TOX_HILL_SLOPE 14.4, HEPG2TOX_R_SQUARED 0.481, PBLUC_HILL_SLOPE 15.9, PBLUC_R_SQUARED 0.0941, read-out: LUCIFERASE INFECTION ASSAY - IC50): 9.11 µM
COc1ccc(/C=C(/C(=O)Nc2ccc(C)c(C)c2)c2nc3ccccc3s2)cc1 | 3.66 | IC50 (HEPG2TOX_HILL_SLOPE 13.8, HEPG2TOX_R_SQUARED 0.904, PBLUC_HILL_SLOPE 19.4, PBLUC_R_SQUARED 0.196, read-out: LUCIFERASE INFECTION ASSAY - IC50): 3.27 µM
CCc1ccc2nc(NC(=O)c3cnccn3)sc2c1 | 9.66 | IC50 (HEPG2TOX_HILL_SLOPE 14.5, HEPG2TOX_R_SQUARED 0.913, PBLUC_HILL_SLOPE 21.7, PBLUC_R_SQUARED 0.176, read-out: LUCIFERASE INFECTION ASSAY - IC50): 8.73 µM
O=C(CN1CCN(c2ccc(C(F)(F)F)cn2)CC1)N1CCC(c2nc3ccccc3s2)CC1 | > 10 | IC50 (HEPG2TOX_HILL_SLOPE 13.7, HEPG2TOX_R_SQUARED 0.915, PBLUC_HILL_SLOPE 1.27, PBLUC_R_SQUARED 0.698, read-out: LUCIFERASE INFECTION ASSAY - IC50): 3.43 µM
Fc1cccc(-c2cc3c(Nc4ccc5c(c4)OCCO5)nccc3[nH]2)c1 | 7.25 | IC50 (HEPG2TOX_HILL_SLOPE 14.3, HEPG2TOX_R_SQUARED 0.604, PBLUC_HILL_SLOPE 1.45, PBLUC_R_SQUARED 0.727, read-out: LUCIFERASE INFECTION ASSAY - IC50): 1.59 µM
CN(C)C(=O)c1ccc(-c2ccnc3n[nH]c(-c4ccc(N(C)C)cc4)c23)cc1 | 5.06 | IC50 (HEPG2TOX_HILL_SLOPE 14.4, HEPG2TOX_R_SQUARED 0.857, PBLUC_HILL_SLOPE 6.94, PBLUC_R_SQUARED 0.445, read-out: LUCIFERASE INFECTION ASSAY - IC50): 3.69 µM
Fc1cccc(-c2cc3c(Nc4ccccn4)nccc3[nH]2)c1 | 9.13 | IC50 (HEPG2TOX_HILL_SLOPE 13.8, HEPG2TOX_R_SQUARED 0.872, PBLUC_HILL_SLOPE 30.4, PBLUC_R_SQUARED 0.0497, read-out: LUCIFERASE INFECTION ASSAY - IC50): 8.5 µM
COc1cccc(CNC(=O)Nc2ccc3nc(Cc4ccccc4)nn3c2)c1 | > 10 | IC50 (HEPG2TOX_HILL_SLOPE 13.6, HEPG2TOX_R_SQUARED 0.936, PBLUC_HILL_SLOPE 1.17, PBLUC_R_SQUARED 0.525, read-out: LUCIFERASE INFECTION ASSAY - IC50): 2.14 µM
CCN(c1ccc(NC(=O)c2ccc3c(c2)NC(=O)CS3)cc1)C(C)C | 3.68 | IC50 (HEPG2TOX_HILL_SLOPE 14.6, HEPG2TOX_R_SQUARED 0.71, PBLUC_HILL_SLOPE 18.6, PBLUC_R_SQUARED 0.967, read-out: LUCIFERASE INFECTION ASSAY - IC50): 3.27 µM
Oc1ccc(/C=C/c2ccc3cccc(O)c3n2)cc1 | 5.07 | IC50 (HEPG2TOX_HILL_SLOPE 13.8, HEPG2TOX_R_SQUARED 0.969, PBLUC_HILL_SLOPE 21.8, PBLUC_R_SQUARED 0.339, read-out: LUCIFERASE INFECTION ASSAY - IC50): 4.58 µM
CN1CCN(c2ccc(CNc3ccc4ncc(-c5ccc(OC(F)(F)F)cc5)n4n3)cc2)CC1 | 6.12 | IC50 (HEPG2TOX_HILL_SLOPE 14.3, HEPG2TOX_R_SQUARED 0.469, PBLUC_HILL_SLOPE 4.14, PBLUC_R_SQUARED 0.775, read-out: LUCIFERASE INFECTION ASSAY - IC50): 3.6 µM

From ChEMBL document CHEMBL4483862, “Open-source discovery of chemical leads for next-generation chemoprotective antimalarials” (2018)
